From PMC4505424, “A Novel Mechanism for Binding of Galactose-terminated Glycans by the C-type Carbohydrate Recognition Domain in Blood Dendritic Cell Antigen 2” (The Journal of Biological Chemistry, 2015)

Columns and labels:
[1] = target: T1, BDCA-2 CRD (blood dendritic cell antigen 2) (Homo sapiens, UniProt Q8WTT0); experiment: solid-phase competition with […]-Man-BSA on immobilised CRD; assay type: binding; conditions: half-maximal inhibition; Ca2+-dependent
T1 construct: gene CLEC4C; extracellular C-type carbohydrate recognition domain; expected mass of CRD 17,100; monomer
T1 sequence (Q8WTT0 67-213): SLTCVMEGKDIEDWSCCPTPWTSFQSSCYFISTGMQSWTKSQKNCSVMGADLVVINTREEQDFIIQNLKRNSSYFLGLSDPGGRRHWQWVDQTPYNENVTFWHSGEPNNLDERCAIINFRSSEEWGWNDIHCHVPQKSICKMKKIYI

[2] = target: T1, BDCA-2 CRD (blood dendritic cell antigen 2); experiment: as above; assay type: binding; conditions: half-maximal inhibition, Ca2+-dependent

Structure (SMILES)	KI relative to KI for α-methyl mannoside [1]	Ki [2] [µM]	also measured
CO[C@H]1O[C@H](CO)[C@@H](O)[C@H](O)[C@H]1NC(C)=O [GlcNAc (α-methyl glycoside)]	including glucose and GlcNAc, as well as L-fucose, also compete for binding	–	–
CC(=O)N[C@H]1[C@H](O[C@H]2[C@H](O)[C@@H](NC(C)=O)C(O)O[C@@H]2CO)O[C@H](CO)[C@@H](O[C@@H]2O[C@H](CO[C@H]3O[C@H](CO)[C@@H](O)[C@H](O)[C@@H]3O[C@@H]3O[C@H](CO)[C@@H](O[C@@H]4O[C@H](CO)[C@H](O)[C@H](O)[C@H]4O)[C@H](O)[C@H]3NC(C)=O)[C@@H](O)[C@H](O[C@H]3O[C@H](CO)[C@@H](O)[C@H](O)[C@@H]3O[C@@H]3O[C@H](CO)[C@@H](O[C@@H]4O[C@H](CO)[C@H](O)[C@H](O)[C@H]4O)[C@H](O)[C@H]3NC(C)=O)[C@@H]2O)[C@@H]1O (some centres unmarked) [asialo biantennary glycan]	–	0.46 ± 0.01	–
CO[C@H]1O[C@H](CO)[C@@H](O)[C@H](O)[C@H]1O [glucose (α-methyl glycoside)]	including glucose and GlcNAc, as well as L-fucose, also compete for binding	–	–
CC(=O)N[C@H]1[C@H](O[C@@H]2C(O)O[C@H](CO)[C@@H](O)[C@@H]2O)O[C@H](CO)[C@@H](O)[C@@H]1O (some centres unmarked) [GlcNAcβ1–2Man]	–	92 ± 12	–
CC(=O)N[C@H]1[C@H](O[C@@H]2C(O)O[C@H](CO)[C@@H](O)[C@@H]2O)O[C@H](CO)[C@@H](O[C@@H]2O[C@H](CO)[C@H](O)[C@H](O)[C@H]2O)[C@@H]1O (some centres unmarked) [Galβ1–4GlcNAcβ1–2Man]	–	–	Ki ([2]; extended site, mannose at Ca2+): 9.2 ± 1.4 µM
CO[C@H]1O[C@H](CO)[C@H](O)[C@H](O)[C@H]1O [galactose (α-methyl glycoside)]	Comparison of mannose and galactose as competing ligands confirmed the affinity chromatography results	–	–
CC(=O)N[C@H]1[C@H](O[C@H]2[C@H](O)[C@@H](NC(C)=O)C(O)O[C@@H]2CO)O[C@H](CO)[C@@H](O[C@@H]2O[C@H](CO[C@H]3O[C@H](CO)[C@@H](O)[C@H](O)[C@@H]3O[C@@H]3O[C@H](CO)[C@@H](O[C@@H]4O[C@H](CO[C@]5(C(=O)O)C[C@H](O)[C@@H](NC(C)=O)[C@H]([C@H](O)[C@H](O)CO)O5)[C@H](O)[C@H](O)[C@H]4O)[C@H](O)[C@H]3NC(C)=O)[C@@H](O)[C@H](O[C@H]3O[C@H](CO)[C@@H](O)[C@H](O)[C@@H]3O[C@@H]3O[C@H](CO)[C@@H](O[C@@H]4O[C@H](CO[C@]5(C(=O)O)C[C@H](O)[C@@H](NC(C)=O)[C@H]([C@H](O)[C@H](O)CO)O5)[C@H](O)[C@H](O)[C@H]4O)[C@H](O)[C@H]3NC(C)=O)[C@@H]2O)[C@@H]1O (some centres unmarked) [disialylated oligosaccharide]	–	320 ± 20	–
CO[C@@H]1O[C@@H](C)[C@@H](O)[C@@H](O)[C@@H]1O [L-fucose (α-methyl glycoside)]	including glucose and GlcNAc, as well as L-fucose, also compete for binding	–	–
